From patent US20180037595A1, “BENZOXABOROLE COMPOUNDS AND USES THEREOF” (GLAXOSMITHKLINE INTELLECTUAL PROPERTY (NO.2) LIMITED, priority 2015, published 2018)
pIC50: −log10 of the molar value. ≈ marks a conversion by molar mass, not a printed value. Where a name gives a salt, the structure may show the parent alone. Read-outs that look alike come from different tables or passages of the source.

Legend:
[1] = test system: M. tuberculosis standard strain Mtb H37Rv; test: MIC determination against mycobacteria (resazurin microtiter assay); type: cell-based, Mycobacterium tuberculosis; conditions: for Selectivity Index (A/B): HepG2 cell 48 h Tox50 (A) / Mtb H37Rv MIC (B); for MIC: Mycobacterium tuberculosis, H37RV, read-out: Mtb H37Rv MIC (B)
A. baumannii ATCC 17978 = test: General antimicrobial activity assay (CLSI broth microdilution); type: cell-based; conditions: Acinetobacter baumannii, ATCC17978, read-out: MIC: A. baumannii ATCC 17978
Procedure: (§1) Whole-cell antimicrobial activity was determined by broth microdilution using the Clinical and Laboratory Standards Institute (CLSI) recommended procedure, Document M7-A7, “Methods for Dilution Susceptibility Tests for Bacteria that Grow Aerobically”.

E. coli K12 tolC::Tn10 = test: as above; type: cell-based; conditions: Escherichia coli, read-out: MIC: E. coli K12 tolC::Tn10
Procedure: as §1

E. coli K12 = test: as above; type: cell-based; conditions: Escherichia coli, K12, read-out: MIC: E. coli K12
Procedure: as §1

P. aeruginosa PA01 = test: as above; type: cell-based; conditions: Pseudomonas aeruginosa, PA01, read-out: MIC: P. aeruginosa PA01
Procedure: as §1

Mtb LeuRS = Mtb LeuRS (Mycobacterium tuberculosis, UniProt P9WFV1); test: LeuRS aminoacylation assay, IC50 determination; type: biochemical, M. tuberculosis; conditions: read-out: Mtb LeuRS IC50
Sequence of Mtb LeuRS (P9WFV1 whole entry): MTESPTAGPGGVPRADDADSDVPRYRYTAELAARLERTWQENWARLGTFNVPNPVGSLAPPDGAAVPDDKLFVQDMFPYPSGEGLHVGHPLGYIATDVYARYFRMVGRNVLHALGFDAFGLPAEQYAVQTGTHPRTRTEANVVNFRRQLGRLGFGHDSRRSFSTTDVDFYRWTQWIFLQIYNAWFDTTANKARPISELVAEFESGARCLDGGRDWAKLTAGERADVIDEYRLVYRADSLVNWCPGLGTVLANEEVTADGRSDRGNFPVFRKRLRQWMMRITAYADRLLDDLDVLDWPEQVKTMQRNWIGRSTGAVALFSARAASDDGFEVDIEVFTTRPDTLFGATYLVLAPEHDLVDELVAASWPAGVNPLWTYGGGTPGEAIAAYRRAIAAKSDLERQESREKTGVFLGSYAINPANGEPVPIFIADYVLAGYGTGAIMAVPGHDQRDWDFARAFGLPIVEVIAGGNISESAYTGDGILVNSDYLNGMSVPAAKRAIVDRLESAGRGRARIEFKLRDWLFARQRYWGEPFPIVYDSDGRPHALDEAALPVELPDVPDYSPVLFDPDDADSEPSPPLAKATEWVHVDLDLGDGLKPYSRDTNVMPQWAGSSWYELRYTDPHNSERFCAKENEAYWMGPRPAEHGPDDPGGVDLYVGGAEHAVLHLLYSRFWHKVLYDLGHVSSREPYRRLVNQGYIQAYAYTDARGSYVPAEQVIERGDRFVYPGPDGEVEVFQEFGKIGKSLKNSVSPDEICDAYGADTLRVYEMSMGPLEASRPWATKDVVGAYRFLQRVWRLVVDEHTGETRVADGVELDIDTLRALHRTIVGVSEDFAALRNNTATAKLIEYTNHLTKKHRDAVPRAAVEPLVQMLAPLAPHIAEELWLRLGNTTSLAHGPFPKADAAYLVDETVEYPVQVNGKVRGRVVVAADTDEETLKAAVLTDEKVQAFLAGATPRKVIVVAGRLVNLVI
Procedure: For biochemical analyses an N-terminal six histidine-tagged LeuRS was over-expressed in Escherichia coli which were E. coli codon-optimised (GenScript, Piscataway N.J., USA), from human mitochondria and cytoplasm, and M. tuberculosis. N-terminal six histidine-tagged LeuRS proteins were over-expressed and purified according to Novagen (Madison, Wis., USA) using an E. coli BL21(DE3) T7 RNA polymerase over-expression strain.
Experiments were performed in 96-well microtiter plates, using 80 μL reaction mixtures containing 50 mM HEPES-KOH (pH 8.0), 30 mM MgCl2 30 mM KCl, 13 μM L-[^14C]leucine (306 mCi/mmol, Perkin-Elmer), 15 uM total E. coli tRNA (Roche, Switzerland), 0.02% (w/v) BSA, 1 mM DTT, 0.2 μM LeuRS and 4 mM ATP at 30° C. Reactions were started by the addition of 4 mM ATP. After 7 minutes, reactions were quenched and tRNA was precipitated by the addition of 50 μL of 10% (w/v) TCA and transferred to 96-well nitrocellulose membrane filter plates (Millipore Multiscreen HTS, MSHAN4B50). Each well was then washed three times with 100 μL of 5% TCA. Filter plates were then dried under a heat lamp and the precipitated L-[^14C]leucine tRNALeu were quantified by liquid scintillation counting using a Wallac MicroBeta Trilux model 1450 liquid scintillation counter (PerkinElmer, Waltham, Mass., USA). The only difference was with the human cytoplasmic LeuRS when we used tRNA isolated from Brewer's Yeast (Roche Diagnostics GmbH).
Reactions were initiated by the addition of 4 mM ATP. Reactions were stopped after 7 minutes then precipitated and counted to quantify radioactivity. IC50 values were determined using the Graphpad Prism software package (Graphpad Software Inc. (La Jolla, Calif., USA).

Human cyto LeuRS = Human cyto LeuRS (Homo sapiens, UniProt Q9P2J5); test: LeuRS aminoacylation assay, IC50 determination; type: biochemical
Sequence of Human cyto LeuRS (Q9P2J5 whole entry): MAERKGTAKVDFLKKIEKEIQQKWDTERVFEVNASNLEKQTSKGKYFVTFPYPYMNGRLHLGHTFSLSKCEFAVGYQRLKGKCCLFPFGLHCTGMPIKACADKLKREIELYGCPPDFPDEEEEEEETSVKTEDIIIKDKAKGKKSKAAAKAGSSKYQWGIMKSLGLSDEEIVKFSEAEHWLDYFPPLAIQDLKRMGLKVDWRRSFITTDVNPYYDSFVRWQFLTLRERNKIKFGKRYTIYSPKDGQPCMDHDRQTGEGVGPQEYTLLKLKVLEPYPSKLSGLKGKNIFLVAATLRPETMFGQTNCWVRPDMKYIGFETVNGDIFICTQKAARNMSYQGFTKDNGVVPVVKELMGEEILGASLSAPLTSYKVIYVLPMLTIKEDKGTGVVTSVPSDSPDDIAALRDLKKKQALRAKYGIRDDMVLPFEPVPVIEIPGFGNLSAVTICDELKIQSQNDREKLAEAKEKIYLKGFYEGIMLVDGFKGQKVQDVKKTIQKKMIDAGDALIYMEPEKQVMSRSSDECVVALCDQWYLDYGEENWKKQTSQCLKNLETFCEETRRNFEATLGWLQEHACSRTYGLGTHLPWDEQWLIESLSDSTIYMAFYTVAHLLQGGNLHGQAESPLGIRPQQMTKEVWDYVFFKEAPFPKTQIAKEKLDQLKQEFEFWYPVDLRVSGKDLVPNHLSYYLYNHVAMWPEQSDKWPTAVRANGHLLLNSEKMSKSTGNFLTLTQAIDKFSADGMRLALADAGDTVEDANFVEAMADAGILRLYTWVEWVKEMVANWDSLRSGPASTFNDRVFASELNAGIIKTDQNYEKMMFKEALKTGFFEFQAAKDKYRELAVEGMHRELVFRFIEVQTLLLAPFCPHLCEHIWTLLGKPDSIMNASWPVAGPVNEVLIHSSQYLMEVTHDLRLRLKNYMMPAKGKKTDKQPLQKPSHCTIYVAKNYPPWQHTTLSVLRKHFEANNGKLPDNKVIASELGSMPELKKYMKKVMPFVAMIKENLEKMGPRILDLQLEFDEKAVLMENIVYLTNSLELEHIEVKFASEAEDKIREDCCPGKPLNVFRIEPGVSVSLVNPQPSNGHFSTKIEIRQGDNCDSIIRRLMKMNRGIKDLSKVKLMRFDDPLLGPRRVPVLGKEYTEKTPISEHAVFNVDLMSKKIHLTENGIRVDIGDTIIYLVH

HepG2 cells = test: HepG2 cytotoxicity assay (resazurin); type: cell-based
[2] = Homo sapiens, HepG2, 48 h, read-out: HepG2 cell 48 h Tox50 (A)

SMILES	Selectivity Index (A/B) [1]	MIC [1] [µM]	MIC (A. baumannii ATCC 17978) [µg/mL]	MIC (E. coli K12 tolC::Tn10) [µg/mL]	MIC (E. coli K12) [µg/mL]	MIC (P. aeruginosa PA01) [µg/mL]	pIC50 (Mtb LeuRS)	pIC50 (HepG2 cells; [2])	further results
CC1COc2ccc(Cl)c3c2B(O1)OC3CN.Cl (stereo not shown) [Example 7, (3-chloro-8-methyl-7,8-dihydro-2H-1,6,9-trioxa-9a-borabenzo[cd]azulen-2-yl)methanamine hydrochloride]	>250	0.2	> 64	> 64	> 64	> 64	5.97	< 4.30	pIC50 (Human cyto LeuRS): < 3.52
NC[C@H]1OB2OCCOc3ccc(I)c1c32 [Example 6, (S)-(3-iodo-7,8-dihydro-2H-1,6,9-trioxa-9a-borabenzo[cd]azulen-2-yl)methanamine hydrochloride]		0.3					6.48	4.44	
CC1COc2c(Cl)cc(Cl)c3c2B(O1)OC3CN (stereo not shown) [Example C7-Cl2, reference compound]	>20						5.10	< 4.30	
CC1(C)COB2OC(CN)c3c(Cl)ccc(c32)O1 (stereo not shown) [Example C9-Cl, reference compound]	>10						4.42	< 4.30	Selectivity Index (A/B) ([1]; listed as C9-CI): 10
CC1COc2ccc(Br)c3c2B(O1)OC3CN.Cl (stereo not shown) [Example 8, (3-bromo-8-methyl-7,8-dihydro-2H-1,6,9-trioxa-9a-borabenzo[cd]azulen-2-yl)methanamine hydrochloride]	>167	0.3	> 64	> 64	> 64	> 64	5.84	< 4.30	pIC50 (Human cyto LeuRS): < 3.52
Cl.NCC1OB2OCCOc3ccc(Cl)c1c32 (racemic) [Example 3]			> 64	> 64	> 64	> 64			Selectivity Index (A/B) ([1]; listed as EXAMPLE 3 G3-Br, hydrochloride): >106; Selectivity Index (A/B) ([1]; listed as Example 3 G3-CI, hydrochloride): > 106
C[C@@]1(CO)COc2ccc(Br)c3c2B(OC3CN)O1 (stereo partly drawn) [Example 16, ((2S,8R, or 2R,8S)-2-(aminomethyl)-3-bromo-8-methyl-7,8-dihydro-2H-1,6,9-trioxa-9a-borabenzo[cd]azulen-8-yl)methanol]	>40	1.25 (≈ 0.41 µg/mL)					5.57	< 4.30	
CC1COc2cccc3c2B(O1)OC3CN (stereo not shown) [Example C11-H, reference compound]	>32		4 (≈ 18.3 µM)	2 (≈ 9.13 µM)	2 (≈ 9.13 µM)	2 (≈ 9.13 µM)	6.29	< 4.30	
Cl.NC[C@H]1OB2O[C@H](CO)COc3ccc(F)c1c32 [Example 13, ((2S,8R)-2-(aminomethyl)-3-fluoro-7,8-dihydro-2H-1,6,9-trioxa-9a-borabenzo[cd]azulen-8-yl)methanol hydrochloride]	>10	0.55					6.32	< 4.30	
CC1(C)COB2OC(CN)c3cccc(c32)O1 (stereo not shown) [Example C10-H, reference compound]		> 5					< 3.52	< 4.30	
CC1(C)COc2ccc(Cl)c3c2B(O[C@@H]3CN)O1.Cl [Example 12, (S)-(3-chloro-8,8-dimethyl-7,8-dihydro-2H-1,6,9-trioxa-9a-borabenzo[cd]azulen-2-yl)methanamine hydrochloride]		0.08	> 64	> 64	> 64	> 64	6.11	3.49	pIC50 (Human cyto LeuRS): < 3.52
Cl.NCC1OB2OCCOc3ccc(Br)c1c32 (racemic) [Example 1]			> 64	> 64	> 64	> 64			Selectivity Index (A/B) ([1]; listed as EXAMPLE 1 G1-Br, hydrochloride): >277; Selectivity Index (A/B) ([1]; listed as Example 1 G1-Br, hydrochloride): > 277
CC1(C)COc2cccc3c2B(OC3CN)O1 (stereo not shown) [Example C12-H, reference compound]	>4.9	> 5	4 (≈ 17.2 µM)	2 (≈ 8.58 µM)	4 (≈ 17.2 µM)	16 (≈ 68.6 µM)	5.88	4.61	
NCCOc1cccc2c1B(O)OC2 [Example C3-H, reference compound]	>0.8						4.75		pIC50 (Human cyto LeuRS): 4.45; pIC50 (HepG2 cells; Homo sapiens, HepG2, 48 h; read-out: HepG2 cell 48 h Tox50 (A)): < 4.30
Cl.NCC1OB2OCCOc3ccc(F)c1c32 (stereo not shown) [Example 5, (3-fluoro-7,8-dihydro-2H-1,6,9-trioxa-9a-borabenzo[cd]azulen-2-yl)methanamine hydrochloride)]		0.6					6.34	4.31	
CC1(C)COc2c(Cl)ccc3c2B(OC3CN)O1 (stereo not shown) [Example C8-Cl, reference compound]	10	> 5					5.22	< 4.30	
Cl.NCC1OB2OCCOc3ccc(Cl)c1c32 (racemic) [Example 3, 3-chloro-7,8-dihydro-2H-1,6,9-trioxa-9a-borabenzo[cd]azulen-2-yl)methanamine hydrochloride]		0.47					6.61	< 4.30	
C[C@@]1(CO)COc2ccc(Cl)c3c2B(OC3CN)O1 (single isomer, unassigned) [Example 14, ((2S,8R or 2R,8S)-2-(aminomethyl)-3-chloro-8-methyl-7,8-dihydro-2H-1,6,9-trioxa-9a-borabenzo[cd]azulen-8-yl)methanol]	>4	1.25 (≈ 0.354 µg/mL)					5.38	< 4.30	
C[C@]1(CO)COc2ccc(Br)c3c2B(O[C@@H]3CN)O1 [Example 17, ((2S,8S, or 2R,8R)-2-(aminomethyl)-3-bromo-8-methyl-7,8-dihydro-2H-1,6,9-trioxa-9a-borabenzo[cd]azulen-8-yl)methanol]	>50	0.925 (≈ 0.303 µg/mL)					5.71	< 4.30	
c1cc2c3c(c1)OCCOB3OC2 [Example C1-H, reference compound]							4.91		pIC50 (Human cyto LeuRS): 4.00
Cl.NCC1OB2OCCOc3ccc(F)c1c32 (stereo not shown) [Example 5]			> 64	64	32	4			
Cl.NCC1OB2OCCOc3ccc(Br)c1c32 (racemic) [Example 1, 3-bromo-7,8-dihydro-2H-1,6,9-trioxa-9a-borabenzo[cd]azulen-2-yl)methanamine hydrochloride]		0.18					6.81	< 4.30	
C[C@]1(CO)COc2ccc(Cl)c3c2B(OC3CN)O1 (stereo partly drawn) [Example 15, ((2S,8S, or 2R,8R)-2-(aminomethyl)-3-chloro-8-methyl-7,8-dihydro-2H-1,6,9-trioxa-9a-borabenzo[cd]azulen-8-yl)methanol]	>50	0.93 (≈ 0.264 µg/mL)					5.50	< 4.30	
NC[C@H]1OB2OCCOc3c(Cl)ccc1c32 [Example C13-Cl, reference compound]	>10							< 4.30	
NC[C@H]1OB2OCCOc3c(Cl)cc(Cl)c1c32 [Example C14-Cl2, reference compound]	>10	> 5					5.33	< 4.30	
